Experimental data taken from US10913750B2, “Tubulin-binding compounds, compositions and uses related thereto” (The Regents of the University of California, priority 2015, dated 2021).

Columns and labels:
Assay type in all cases: cell-based
M207 = assay: CellTiter-Glo cell viability, M207
Description: (§1) To determine if MI-181 had broad anti-cancer activity, we treated a diverse panel of cancer cell lines including cervical adenocarcinoma (HeLa), breast adenocarcinoma (MCF7), melanoma (M233), osteosarcoma (U205), acute lymphoblastic leukemia (CCRF-CEM), non-small cell lung carcinoma (NCI-H460), and breast adenocarcinoma (MCF7) with MI-181 and determined its cell viability IC50 (FIGS. 13A and 13B). […] Therefore, the efficacy of MI-181 was analyzed in a panel of melanoma cell lines with defined genetic backgrounds including BRAF^V600E and NRAS^Q61L mutations and varied sensitivities to Vemurafenib (BRAF inhibitor) and Trametinib (MEK inhibitor), which are currently used to treat BRAF^V600E melanomas^43,44 (FIG. 10c). […] As a general trend BRAF^V600E cell lines were slightly more sensitive than NRAS^Q61L cell lines and MI-181 was effective in Vemurafenib and Trametinib resistant cell lines (FIG. 10c and Table 3). Finally, we tested the ability of MI-181 to inhibit melanoma colony formation using the M233 and M308 cell lines (both resistant to Vemurafenib). Indeed, MI-181 was a potent inhibitor of colony formation (percentage colony formation for 10 nM MI-181=0.2±0.1 and 0.8±0.7; for 10 nM colchicine=0.1±0.06 and 1.5±0.5; and for 10 nM Vemurafenib=94±7 and 102±5) (FIG. 10d). Thus, MI-181 is a potent inhibitor of melanoma cell lines. […]

M409 = assay: CellTiter-Glo cell viability, M409
Description: as §1

melanoma (M233) = assay: CellTiter-Glo cell viability, M233
Description: as §1

[1] = system: diverse panel of cancer cell lines; assay: Cell viability in a diverse panel of cancer cell lines; settings: HeLa, M233, U205, CCRF-CEM, NCI-H460; MCF7 excepted; read-out: cell viability IC50 across most cancer cell lines
Description: as §1

M395 = assay: CellTiter-Glo cell viability, M395
Description: as §1

M244 = assay: CellTiter-Glo cell viability, M244
Description: as §1

M229 = assay: CellTiter-Glo cell viability, M229
Description: as §1

M368 = assay: CellTiter-Glo cell viability, M368
Description: as §1

M233 = assay: Melanoma colony formation, M233; settings: 10 nM, M233 (first value of pair)
Description: (§2) To determine if MI-181 had broad anti-cancer activity, we treated a diverse panel of cancer cell lines including cervical adenocarcinoma (HeLa), breast adenocarcinoma (MCF7), melanoma (M233), osteosarcoma (U205), acute lymphoblastic leukemia (CCRF-CEM), non-small cell lung carcinoma (NCI-H460), and breast adenocarcinoma (MCF7) with MI-181 and determined its cell viability IC50 (FIGS. 13A and 13B). […] Therefore, the efficacy of MI-181 was analyzed in a panel of melanoma cell lines with defined genetic backgrounds including BRAF^V600E and NRAS^Q61L mutations and varied sensitivities to Vemurafenib (BRAF inhibitor) and Trametinib (MEK inhibitor), which are currently used to treat BRAF^V600E melanomas^43,44 (FIG. 10c). […] As a general trend BRAF^V600E cell lines were slightly more sensitive than NRAS^Q61L cell lines and MI-181 was effective in Vemurafenib and Trametinib resistant cell lines (FIG. 10c and Table 3). Finally, we tested the ability of MI-181 to inhibit melanoma colony formation using the M233 and M308 cell lines (both resistant to Vemurafenib). Indeed, MI-181 was a potent inhibitor of colony formation (percentage colony formation for 10 nM MI-181=0.2±0.1 and 0.8±0.7; for 10 nM colchicine=0.1±0.06 and 1.5±0.5; and for 10 nM Vemurafenib=94±7 and 102±5) (FIG. 10d). Thus, MI-181 is a potent inhibitor of melanoma cell lines.

M318 = assay: CellTiter-Glo cell viability, M318
Description: as §1

M308 [2] = assay: CellTiter-Glo cell viability, M308
Description: as §1

HeLa cells = assay: CellTiter-Glo cell viability, HeLa cells; settings: Homo sapiens, HeLa
Description: The cell viability IC50 of each compound was determined using Promega CellTiter-Glo Luminescent Cell Viability Assay kit by measuring the total ATP levels to quantify the number of metabolically active cells upon drug treatment as described in Crouch et al., J Immunol Methods 1993, 160, (1), 81-8. Briefly, the compounds were suspended in DMSO at 10 mM and diluted in 384 plates (20 μl/well in DMSO) in triplicate by a 14-point titration (12 nM to 100 μM). 50 μl of HeLa cells or patient derived glioblastoma cells (HK-309) (2000 cells/well) were then treated with the prepared dilutions of the drugs (0.5 μl) and incubated at 37° C. and 5% CO2. 72 hours later 50 μl of CellTiter-Glo reagent was added to each well followed by a 2 minutes shaking and a 10-minute incubation to lyse the cells. The relative luminescent intensity units (RLU) of each well was measured using a Tecan M1000 microplate reader (Tecan Group Ltd.) with its green filter and 1 second integration time.
Cells used in Example 2 and other examples disclosed herein were cultured as follows: Adherent HeLa cells and patient derived glioblastoma cells were grown with 5% CO2 at 37° C. in F12:DMEM 50:50 medium (Invitrogen) containing 10% FBS and 1% penicillin/streptomycin. To obtain HeLa cells synchronized in mitosis, cycling cells were treated with 2 mM thymidine (Sigma-Aldrich) for eighteen hours, washed three times with PBS, and released into fresh media until they entered mitosis eight hours post-release. Patient-derived glioblastoma cells (HK-309) were collected and grown with approval from the UCLA Institutional Review Board. HK-309 was derived from a recurrent glioblastoma taken from a person. The cells were initially propagated as cancer stem cell-containing spheres in serum-free medium containing basic fibroblast growth factor and epidermal growth factor (Preprotech) as described previously by Visnyei et al., Mol Cancer Ther 2011, 10, (10), 1818-28.
For mitotic arrest IC50s, cells were treated with a twenty-point-2-fold-titration (190 pM to 10 μM) of each compound tested for 20 hours. For cell viability IC50s, cells were treated with a fourteen-point-2-fold-titration (12.2 nM to 100 μM). Mitotic arrest IC50 was determined by measuring the percent G2/M arrest using the Vybrant DyeCycle Green (Invitrogen) assay described above. Cell viability IC50 was determined using the CellTiter-Glo Assay (Promega), which measures total ATP levels. Plates were read with a Tecan M1000 micro-plate reader at 540 nm. The CDD software was used for generating IC50 and IC90 values.

M308 [3] = assay: Melanoma colony formation, M308; settings: 10 nM, M308 (second value of pair)
Description: as §2

IC50 (melanoma (M233)): 24.4 nM | IC50 [1]: 30 to 360 nM | IC50 (HeLa cells): 17.4 nM
Structure (SMILES): Cc1cc2nc(/C=C/c3cccnc3)sc2cc1C [MI-181]
IC50 (M207): 41.7 nM | IC50 (M409): 41.9 nM | IC50 (M395): 23.4 nM | IC50 (M244): 41.5 nM | IC50 (M229): 36.7 nM | IC50 (M368): 42.1 nM | percentage colony formation (M233): 0.2±0.1 | IC50 (M318): 54.9 nM | IC50 (M308 [2]): 28.3 nM | percentage colony formation (M308 [3]): 0.8±0.7
